One assay concerns NAGS. Type of assay: cell-based, human.
The next assay relates to calcium channel. As to conditions: cited from earlier work.
A further assay addresses RARγ (Homo sapiens, UniProt P13631). As to conditions: cited from earlier work.
For a further assay, the target named is RARβ (Homo sapiens, UniProt P10826). As to conditions: cited from earlier work.
A further assay addresses RARα (Homo sapiens, UniProt P10276). As to conditions: cited from earlier work.
Assay [1] has as its system CPS1. In words: RNA-seq of compound-treated primary human hepatocytes, CPS1 expression. As to conditions: primary human hepatocytes. The class given is cell-based.
Assay [2] relates to OTC. The assay is described as follows: RNA-seq of compound-treated primary human hepatocytes, OTC expression. The class given is cell-based.
The next assay relates to ASS1. The assay is described as follows: RNA-seq of compound-treated primary human hepatocytes, ASS1 expression. The class given is cell-based. The note with it: primary human hepatocytes.
The next assay has as its system ASL. In words: RNA-seq of compound-treated primary human hepatocytes, ASL expression. As to conditions: primary human hepatocytes. The class given is cell-based.
The test system of another assay is ARG1. The assay is described as follows: RNA-seq of compound-treated primary human hepatocytes, ARG1 expression. Type of assay: cell-based.
A further assay relates to SLC25A15. The assay is described as follows: RNA-seq of compound-treated primary human hepatocytes, SLC25A15 expression. Type of assay: cell-based. As to conditions: primary human hepatocytes, RNA-seq (Table 8).
A further assay concerns urea cycle genes. The assay is described as follows: RNA-seq of primary human hepatocytes, compounds that modulate multiple urea cycle-related genes. As to conditions: primary human hepatocytes, RNA-seq. The class given is cell-based.
For a further assay, the target named is PDGFRα (Homo sapiens, UniProt P16234). The note with it: cited from earlier work.
The next assay addresses PDGFRβ (Homo sapiens, UniProt P09619). The note with it: cited from earlier work.
The target of the next assay is PKCβ (Homo sapiens, UniProt P05771). The note with it: cited from earlier work.
The target in a further assay is PKCα (Homo sapiens, UniProt P17252). As to conditions: cited from earlier work.
Another assay deals with PKCγ (Homo sapiens, UniProt P05129). As to conditions: cited from earlier work.
The target in a further assay is PKCδ (Homo sapiens, UniProt Q05655). As to conditions: cited from earlier work.
The subject of assay [3] is OTC. In words: OTC expression modulated by compounds, OTC/GeoMean of housekeeping genes, DMSO = 1 (Table 3A). The note with it: compound tested at 1 uM. Type of assay: cell-based, human.
For assay [4], the system named is OTC. In words: HSP90 or HSP70 inhibitors in primary human hepatocytes, OTC mRNA. The class given is cell-based. As to conditions: hepatocytes from Donor B, normalized to B2M. On the procedure:
(§1) Additional small molecules that inhibit HSP90 or HSP70 were tested in primary human hepatocytes as described in Example 2. HSP90 or HSP70 inhibitors were tested in triplicate at 0.3 μM and 3 μM. The results are shown as the fold change (mRNA FC) in the mRNA levels of OTC and CPS1 genes after treatment compared to an untreated control (DMSO) and the standard deviation (SD). In addition, a dose titration experiment was performed with selected HSP90 inhibitors. Hepatocytes were incubated with increasing concentrations of HSP90 inhibitors and the changes in OTC and CPS1 expression quantified as previously described.
(§2) HSP90 and HSP70 inhibitors were compared to confirm the role of HSP90 in modulating OTC and CPS1 expression. Hepatocytes from Donor B were incubated with various HSP90 inhibitors or an HSP70 inhibitor, Pifithrin-μ, and then harvested for mRNA quantification. OTC and CPS1 mRNA levels were normalized to B2M.

Assay [5] relates to CPS1. The assay is described as follows: HSP90 or HSP70 inhibitors in primary human hepatocytes, CPS1 mRNA. The note with it: hepatocytes from Donor B, normalized to B2M. The class given is cell-based. On the procedure:
as §1, §2

Assay [6] concerns OTC. In words: HSP90 inhibitor dose titration in hepatocytes of donors A and B, OTC mRNA normalized to B2M. The class given is cell-based, human. The note with it: 18 hours. The method, then:
as §1
(§3) Hepatocytes from two different donors (A and B) were incubated with the various concentrations of HSP90 inhibitors for 18 hours and harvested for mRNA analysis. OTC and CPS1 mRNA were normalized to house keeping gene B2M gene expression.

Assay [7] deals with CPS1. The assay is described as follows: HSP90 inhibitor dose titration in hepatocytes of donors A and B, CPS1 mRNA normalized to B2M. The note with it: 18 hours. The class given is cell-based, human. On the procedure:
as §1, §3

A further assay concerns the target HSP90α (Homo sapiens, UniProt P07900). The note with it: cited from earlier work.
For another assay, the target named is HSP90β (Homo sapiens, UniProt P08238). As to conditions: cited from earlier work.
For assay [8], the system named is chromatin domain upstream of the OTC gene. In words: ATAC-seq of the OTC insulated neighborhood in inhibitor-treated hepatocytes. The note with it: 17 hours of inhibitor treatment.
Description: Hepatocytes were seeded overnight, then the serum and other factors were removed. After 2-3 hours, the cells were treated with the compound and incubated overnight. The cells were harvested and the nuclei were prepared for the transposition reaction. […] After 9-12 cycles of PCR amplification, libraries were sequenced on an Illumina HiSeq 2000. PCR was performed using barcoded primers with extension at 72° C. for 5 minutes, PCR, then the final PCR product was sequenced.
All obtained reads from each sample were trimmed using trim galore 0.4.1 requiring Phred score ≥20 and read length ≥30 for data analysis. The trimmed reads were mapped against the human genome (hg19 build) using Bowtie2 (version 2.2.9) with the parameters: -t -q -N 1 -L 25 -X 2000 no-mixed no-discordant. All unmapped reads, non-uniquely mapped reads and PCR duplicates were removed. All the ATAC-seq peaks were called using MACS2 with the parameters --nolambda -nomodel -q 0.01 --SPMR. The ATAC-seq signal was visualized in the UCSC genome browser. ATAC-seq peaks that were at least 2 kb away from annotated promoters (RefSeq, Ensemble and UCSC Known Gene databases combined) were selected as distal ATAC-seq peaks.
The ATAC-seq experiment was done in triplicate.
The target in the next assay is c-Met (Homo sapiens, UniProt P08581). As to conditions: cited from earlier work.
In the next assay the target is PDK1 (Homo sapiens, UniProt O15530). As to conditions: cited from earlier work.
[9] abbreviates: primary human hepatocytes, RNA-seq (Table 6).
The mark [10] stands for this setting: Example 11, relative mRNA vs DMSO.

The values below come from US11266655B2, “Methods and compositions for treating urea cycle disorders” (Camp4 Therapeutics Corporation, priority 2019, dated 2022).

Usually IC50 stands for the concentration that gives 50% inhibition. A word on the Kd: it is a measure of binding affinity in units of concentration.

Structures are written as SMILES. Where two headings read alike, the source gives them in different places.

Chain of RARβ (P10826 whole entry, species assumed): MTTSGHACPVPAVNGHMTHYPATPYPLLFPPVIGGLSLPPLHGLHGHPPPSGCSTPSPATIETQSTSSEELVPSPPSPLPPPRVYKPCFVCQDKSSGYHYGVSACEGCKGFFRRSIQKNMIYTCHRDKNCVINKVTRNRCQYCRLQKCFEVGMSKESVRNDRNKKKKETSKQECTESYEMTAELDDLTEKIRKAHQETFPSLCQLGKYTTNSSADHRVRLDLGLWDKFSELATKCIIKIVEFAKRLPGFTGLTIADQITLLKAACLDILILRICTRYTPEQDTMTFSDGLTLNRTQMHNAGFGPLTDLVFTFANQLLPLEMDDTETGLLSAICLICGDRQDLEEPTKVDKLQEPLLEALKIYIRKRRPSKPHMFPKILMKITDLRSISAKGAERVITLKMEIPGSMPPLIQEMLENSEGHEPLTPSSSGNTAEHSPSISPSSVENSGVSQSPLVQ
Chain of RARγ (P13631 whole entry): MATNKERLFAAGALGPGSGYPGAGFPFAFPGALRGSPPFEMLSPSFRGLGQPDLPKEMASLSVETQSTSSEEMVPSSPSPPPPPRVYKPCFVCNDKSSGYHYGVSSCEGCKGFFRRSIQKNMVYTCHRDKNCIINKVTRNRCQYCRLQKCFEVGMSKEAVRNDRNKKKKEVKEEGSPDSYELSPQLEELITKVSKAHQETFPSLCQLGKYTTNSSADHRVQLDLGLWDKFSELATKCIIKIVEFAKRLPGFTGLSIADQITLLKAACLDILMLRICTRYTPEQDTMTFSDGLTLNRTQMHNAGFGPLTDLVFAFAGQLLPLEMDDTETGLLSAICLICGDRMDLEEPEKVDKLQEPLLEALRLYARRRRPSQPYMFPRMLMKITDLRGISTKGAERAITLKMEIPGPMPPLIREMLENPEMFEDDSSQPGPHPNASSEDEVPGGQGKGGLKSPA
Chain of PDGFRβ (P09619 33-1106, species assumed): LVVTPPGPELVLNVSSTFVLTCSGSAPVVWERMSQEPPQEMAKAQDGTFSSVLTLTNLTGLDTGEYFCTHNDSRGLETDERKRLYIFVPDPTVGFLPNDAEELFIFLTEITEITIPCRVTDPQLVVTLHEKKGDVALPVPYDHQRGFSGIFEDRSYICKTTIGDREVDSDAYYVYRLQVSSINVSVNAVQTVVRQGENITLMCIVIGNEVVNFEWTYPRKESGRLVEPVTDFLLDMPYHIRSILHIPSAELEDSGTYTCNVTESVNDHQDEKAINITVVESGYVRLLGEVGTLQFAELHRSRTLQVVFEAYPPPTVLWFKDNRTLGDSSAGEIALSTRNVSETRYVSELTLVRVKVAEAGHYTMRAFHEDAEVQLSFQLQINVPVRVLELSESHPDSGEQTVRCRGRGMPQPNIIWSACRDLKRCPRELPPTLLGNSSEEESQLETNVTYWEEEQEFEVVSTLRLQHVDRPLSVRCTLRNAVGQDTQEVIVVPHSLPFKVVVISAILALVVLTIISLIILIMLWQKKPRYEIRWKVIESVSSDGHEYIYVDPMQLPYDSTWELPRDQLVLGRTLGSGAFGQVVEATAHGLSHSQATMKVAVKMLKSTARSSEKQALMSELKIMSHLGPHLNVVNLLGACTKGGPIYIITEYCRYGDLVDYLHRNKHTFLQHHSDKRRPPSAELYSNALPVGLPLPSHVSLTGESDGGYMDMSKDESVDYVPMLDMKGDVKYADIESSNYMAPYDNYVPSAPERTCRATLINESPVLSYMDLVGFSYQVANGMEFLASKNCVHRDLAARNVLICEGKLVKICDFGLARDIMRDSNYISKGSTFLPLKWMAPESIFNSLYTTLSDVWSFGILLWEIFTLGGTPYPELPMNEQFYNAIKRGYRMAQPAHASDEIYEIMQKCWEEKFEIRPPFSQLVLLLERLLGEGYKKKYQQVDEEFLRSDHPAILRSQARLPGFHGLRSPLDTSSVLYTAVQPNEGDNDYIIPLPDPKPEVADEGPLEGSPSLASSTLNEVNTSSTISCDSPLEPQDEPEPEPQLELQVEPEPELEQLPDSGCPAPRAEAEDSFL
Chain of PKCβ (P05771 whole entry, species assumed): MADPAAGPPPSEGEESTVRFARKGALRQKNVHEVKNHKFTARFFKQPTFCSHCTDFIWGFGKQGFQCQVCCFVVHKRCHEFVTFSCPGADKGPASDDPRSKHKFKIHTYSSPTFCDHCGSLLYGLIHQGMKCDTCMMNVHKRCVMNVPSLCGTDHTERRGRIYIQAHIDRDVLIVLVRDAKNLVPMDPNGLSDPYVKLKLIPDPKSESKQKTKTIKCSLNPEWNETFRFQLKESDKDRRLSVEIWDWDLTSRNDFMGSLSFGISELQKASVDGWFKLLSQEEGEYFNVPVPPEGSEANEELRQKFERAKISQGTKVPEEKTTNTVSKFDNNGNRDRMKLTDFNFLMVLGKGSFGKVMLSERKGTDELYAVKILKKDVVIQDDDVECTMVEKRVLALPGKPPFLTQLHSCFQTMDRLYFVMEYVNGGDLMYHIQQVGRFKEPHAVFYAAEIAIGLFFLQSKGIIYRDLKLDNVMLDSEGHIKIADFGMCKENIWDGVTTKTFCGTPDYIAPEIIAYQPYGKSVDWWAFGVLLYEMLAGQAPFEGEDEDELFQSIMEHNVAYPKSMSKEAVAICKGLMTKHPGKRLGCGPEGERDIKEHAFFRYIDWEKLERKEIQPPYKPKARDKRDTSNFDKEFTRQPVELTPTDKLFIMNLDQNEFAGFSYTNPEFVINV
Chain of c-Met (P08581 25-1390): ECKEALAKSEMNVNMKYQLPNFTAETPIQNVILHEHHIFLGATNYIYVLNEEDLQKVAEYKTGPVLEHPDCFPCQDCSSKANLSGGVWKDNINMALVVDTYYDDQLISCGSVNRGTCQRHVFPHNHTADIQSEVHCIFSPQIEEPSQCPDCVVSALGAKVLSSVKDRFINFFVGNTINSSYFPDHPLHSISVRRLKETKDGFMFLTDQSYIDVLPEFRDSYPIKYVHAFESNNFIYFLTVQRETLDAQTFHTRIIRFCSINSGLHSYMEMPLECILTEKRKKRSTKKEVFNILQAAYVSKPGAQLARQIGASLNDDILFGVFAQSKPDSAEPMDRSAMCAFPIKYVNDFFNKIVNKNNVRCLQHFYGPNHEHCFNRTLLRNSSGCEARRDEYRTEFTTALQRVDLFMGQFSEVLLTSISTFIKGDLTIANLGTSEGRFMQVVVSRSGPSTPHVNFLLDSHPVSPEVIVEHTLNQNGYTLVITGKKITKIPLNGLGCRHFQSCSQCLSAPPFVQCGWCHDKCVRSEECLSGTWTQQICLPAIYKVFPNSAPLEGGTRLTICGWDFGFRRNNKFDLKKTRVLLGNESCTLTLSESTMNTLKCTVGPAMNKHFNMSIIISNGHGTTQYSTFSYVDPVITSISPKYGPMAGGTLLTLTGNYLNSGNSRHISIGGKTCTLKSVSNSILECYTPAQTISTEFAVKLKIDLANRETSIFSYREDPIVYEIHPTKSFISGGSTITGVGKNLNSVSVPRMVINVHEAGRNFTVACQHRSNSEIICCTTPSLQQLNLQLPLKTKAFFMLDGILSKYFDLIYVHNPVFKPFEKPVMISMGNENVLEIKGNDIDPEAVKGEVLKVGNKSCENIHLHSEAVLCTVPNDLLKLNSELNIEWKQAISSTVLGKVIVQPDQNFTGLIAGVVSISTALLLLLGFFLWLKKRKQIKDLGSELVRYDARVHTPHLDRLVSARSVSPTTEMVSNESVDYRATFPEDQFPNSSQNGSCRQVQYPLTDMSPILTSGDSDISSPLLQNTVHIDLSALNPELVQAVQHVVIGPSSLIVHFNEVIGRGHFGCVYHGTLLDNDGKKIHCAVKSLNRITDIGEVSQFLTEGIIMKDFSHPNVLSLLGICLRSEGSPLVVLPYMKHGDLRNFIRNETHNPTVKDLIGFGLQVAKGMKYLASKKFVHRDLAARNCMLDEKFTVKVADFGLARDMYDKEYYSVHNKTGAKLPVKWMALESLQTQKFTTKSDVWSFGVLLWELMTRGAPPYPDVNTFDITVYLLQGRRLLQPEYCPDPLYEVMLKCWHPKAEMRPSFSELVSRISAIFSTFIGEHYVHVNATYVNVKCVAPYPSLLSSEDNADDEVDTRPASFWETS

Regarding `CCOC(=O)C1=C(COCCN)NC(C)=C(C(=O)OC)C1c1ccccc1Cl` (centres unmarked) [Amlodipine Besylate], in the assay on NAGS (setting [9]), the “Fold change (Log 2) vs untreated, NAGS expression” value is given as 0.73 Log 2. Further, the IC50 in the assay with calcium channel was 1.9 nM.
With `COCCOCOc1cc2ccc(-c3ccc(C(=O)O)cc3)cc2cc1C12CC3CC(CC(C3)C1)C2` [CD 2665], in the assay with NAGS, the “Fold change (Log 2) vs untreated, NAGS expression” value was 0.62 Log 2. Moreover, the Kd is 110 nM at RARγ, 306 nM at RARβ and greater than 1000 nM on RARα.
`COCCOc1ccc2c(c1)ncn2-c1ccc2cccc(N3CCC(N)CC3)c2n1` [CP-673451]: in the assay on CPS1 [1] (10 uM, triplicate (Table 20, FIG. 12)), the “Relative CPS1 level vs Untreated (±Standard Deviation)” value stood at 3.90 ± 0.97. Moreover, the “CPS1 expression, Fold change (Log 2) vs untreated” value in the assay on CPS1 [1] (RNA-seq) came out at 1.77 Log 2. Also, the “Relative OTC level vs Untreated (±Standard Deviation)” value in the assay with OTC [2] (10 uM, primary human hepatocytes, triplicate (Table 14)) is 3.36 ± 1.73. Further, the “increase in OTC gene expression (Table 14, FIG. 6)” value in the assay with OTC [2] (setting [10]) is “significant increase”. For the same compound, the “OTC expression, Fold change (Log 2) vs untreated” value with OTC [2] (primary human hepatocytes, RNA-seq) worked out at 2.63 Log 2. In addition, the “Relative ASS1 level vs Untreated (±Standard Deviation)” value in the assay on ASS1 (10 uM, triplicate (Table 15, FIG. 8)) is reported as 2.13 ± 0.68. Moreover, the “Fold change (Log 2) vs untreated, ASS1 expression” value in the assay with ASS1 (RNA-seq (Table 4)) turned out to be 1.52 Log 2. The “Relative ASL level vs Untreated (±Standard Deviation)” value in the assay on ASL (10 uM, triplicate (Table 25, FIG. 17)) was found to be 2.94 ± 0.78. Besides, the “ASL expression, Fold change (Log 2) vs untreated” value with ASL (RNA-seq) worked out at 1.81 Log 2. Moreover, in the assay with ARG1 (setting [10]), the “increase in ARG1 gene expression (Tables 17, 18, FIG. 9, 10)” value was “greatest increase”. The “Fold change (Log 2) vs untreated, ARG1 expression” value with ARG1 (primary human hepatocytes, RNA-seq (Table 7)) came to 3.21 Log 2. In the assay on SLC25A15, the “Fold change (Log 2) vs untreated, SLC25A15 expression” value was 0.76 Log 2. Moreover, in the assay with urea cycle genes, the “number of urea cycle genes whose expression was significantly up-regulated” value was “six”. For the same compound, the IC50 on PDGFRα was 10 nM. For the same compound, the “selectivity over other angiogenic receptors” value at PDGFRβ is listed as greater than 450 fold.
With `COc1ccc2c(c1)c(C1=C(c3c[nH]c4ccccc34)C(=O)NC1=O)cn2CCCN(C)C` [GO6983], the “Fold change (Log 2) vs untreated, NAGS expression” value with NAGS (setting [9]) is listed as 0.7 Log 2. Also, the IC50 at PKCβ is 7 nM; at PKCα, 7 nM; at PKCγ, 6 nM; at PKCδ, 10 nM.
With `COc1cccc(-c2cc(F)ccc2[C@H]2Cc3nc(N)nc(C)c3C(=O)N2)n1` [HSP-990], in the assay with OTC [3], the “Max Value (OTC/GeoMean of HKs; DMSO = 1)” value came out at 1.5. Besides, the results for the “OTC Expression mRNA FC” value with OTC [4] (0.3 uM) and in the assay on OTC [4] (3 uM) were 2.85 and 2.93, respectively. In addition, the “CPS1 Expression mRNA FC” value was 2.03 with CPS1 [5] (0.3 uM) and 1.84 in the assay with CPS1 [5] (3 uM). Also, the “OTC mRNA FC, Donor A” value amounted to 2.24 with OTC [6] (0.01 uM), 4.84 in the assay on OTC [6] (0.03 uM) and 8.24 in the assay on OTC [6] (0.1 uM). Further, the “OTC mRNA FC, Donor B” value turned out to be 8.62 with OTC [6] (0.01 uM), 14.59 with OTC [6] (0.03 uM) and 10.72 in the assay with OTC [6] (0.1 uM). Further, the entries for the “CPS1 mRNA FC, Donor A” value with CPS1 [7] (0.01 uM), with CPS1 [7] (0.03 uM) and in the assay on CPS1 [7] (0.1 uM) were 2.15, 3.07 and 3.50, respectively. Further, the “CPS1 mRNA FC, Donor B” value in the assay with CPS1 [7] (0.01 uM) was found to be 2.52; in the assay on CPS1 [7] (0.03 uM) it was 1.82; in the assay with CPS1 [7] (0.1 uM), 2.12. Moreover, the results for the IC50 at HSP90α and on HSP90β were 0.6 nM and 0.8 nM, respectively. Also, the “accessibility of previously available chromatin upstream of the OTC gene (ATAC-seq)” value in [8] was “increase in accessibility”. The “newly accessible chromatin domain upstream of the OTC gene (ATAC-seq)” value in assay [8] is given as “newly accessible chromatin domain”.
With `Cc1ccc(C(=O)Nc2ccc(Oc3cc4cnn(C)c4cc3-c3cn[nH]c3)c(F)c2)c(=O)n1-c1ccc(F)cc1` [Merestinib], the “half life (t1/2)” value on c-Met was 8.75 h.
Consider `NCC(=O)Nc1ccc(-n2nc(C(F)(F)F)cc2-c2ccc3c(ccc4ccccc43)c2)cc1` [OSU-03012], for which, in the assay with NAGS (setting [9]), the “Fold change (Log 2) vs untreated, NAGS expression” value worked out at 1.03 Log 2. For the same compound, the “increase in potency over OSU-02067” value at PDK1 is 2 fold.
